{
  "source": "patent US20040259959A1",
  "about": "“Method and pharmaceutical preparation for reducing the activity of cells” (priority 2001, published 2004)",
  "key": {"[1]": {"test_system": "MCF-7 mammary cancer cell", "assay": "MCF-7 mammary cancer cell proliferation ([3H]thymidine incorporation), stimulated by 3% serum", "format": "cell-based", "experimental": "(§1) FIG. 1. […] MCF-7 mammary cancer cell were preincubated for 24 hours in 0.5% serum and then growth ([^3H]thymidine incorporation) was stimulated by 3% serum. Stimulated cells were treated for 3 days with the indicated concentrations of the astaxanthin alone or in combination with 0.3 μM lycopene (FIG. 1A). The high concentrations of lycopene and astaxanthin (FIG. 1B) are indicated. Data presented are the mean±SE of 2-3 independent experiments performed in quadruplicates.\nas §1, with “FIG. 4.” for “FIG. 1.”, “the phytoene and phytofluene (phytoene) mixture” for “the astaxanthin”, “(FIG. 4A).” for “(FIG. 1A).”, “and phytoene plus phytofluene” for “and astaxanthin”, “(FIG. 4B)” for “(FIG. 1B)”\nFIG. 5. […] MCF-7 mammary cancer cell were preincubated for 24 hours in 0.5% serum and then growth ([^3H]thymidine incorporation) was stimulated by 3% serum. Stimulated cells were treated for 3 days with the indicated concentrations Of the beta-carotene alone or in combination with 0.3 μM lycopene (FIG. 5A). The high concentrations of lycopene and beta-carotene (FIG. 5B) are indicated. Data presented are the mean±SE of 2-3 independent experiments performed in quadruplicates."}, "[2]": {"test_system": "LNCaP prostate cancer cell", "assay": "DHT induced LNCaP prostate cancer cell proliferation ([3H]thymidine incorporation)", "format": "cell-based", "details": "3 days", "experimental": "FIG. 2. […] LNCaP prostate cancer cell were preincubated for 24 hours in 1.5% serum and then growth ([^3]thymidine incorporation) was stimulated by addition of […] (DHT). Stimulated cells were treated for 3 days with the indicated concentrations of the phytoene and phytofluene (phytoene) mixture alone or in combination with 0.3 μM Lycopene (plus lycopene) (FIG. 2A). The high concentrations of lycopene and phytoene plus phytofluene (FIG. 2B) are indicated. Data presented are the mean±SE of 2-3 independent experiments performed in quadruplicates.\nFIG. 3. […] LNCaP prostate cancer cell were preincubated for 24 hours in 1.5% serum and then growth ([^3]thynidine incorporation) was stimulated by addition of 10^−9 M dihydrotestosterone DHT). Stimulated cells were treated for 3 days with the indicated concentrations of the beta-carotene alone or in combination with 0.3 μM lycopene (FIG. 3A). The high concentrations of lycopene and beta-carotene (FIG. 3B) are indicated. Data presented are the mean±SE of 2-3 independent experiments performed in quadruplicates."}, "[3]": {"details": "subjects receiving high supplementation of lycopene; cited from earlier work"}, "[4]": {"details": "up to levels of 4 μM; cited from earlier work"}, "[5]": {"test_system": "H-ras-induced cell transformation", "details": "mammalian cells producing phytoene; cited from earlier work"}, "[6]": {"test_system": "dimethylbenz(a)anthracene(DMBA)/UV-B induced tumors", "details": "mice; cited from earlier work"}, "UV-B induced tumors": {"test_system": "UV-B induced tumors", "details": "mice treated with phytoene; cited from earlier work"}},
  "data": [
    {"smiles": "CC(C)=CCC/C(C)=C/C=C/C(C)=C/C=C/C(C)=C/C=C/C=C(C)/C=C/C=C(C)/C=C/C=C(\\C)CCC=C(C)C", "note": "[lycopene]", "values": [
      {"measurement": "effect of lycopene on the inhibitory effects of astaxanthin on mammary cancer cell proliferation", "setting": "[1]; MCF-7, 0.3 μM lycopene combined with astaxanthin, 3 days, FIG. 1", "value": "enhances the inhibitory effects"},
      {"measurement": "effect of lycopene on the inhibitory effects of beta-carotene on mammary cancer cell proliferation", "setting": "[1]; MCF-7, 0.3 μM lycopene combined with beta-carotene, 3 days, FIG. 5", "value": "enhances the inhibitory effects"},
      {"measurement": "effect of lycopene on the inhibitory effects of phytoene and phytofluene on mammary cancer cell proliferation", "setting": "[1]; MCF-7, 0.3 μM lycopene combined with phytoene and phytofluene mixture, 3 days, FIG. 4", "value": "enhances the inhibitory effects"},
      {"measurement": "decrease in proliferation", "setting": "[1]; breast cancer cells, lycopene alone at low concentration (0.3 μM)", "value": "no decrease in proliferation"},
      {"measurement": "concentration of lycopene alone giving the same dramatic inhibition of cancer cells as the combination", "setting": "[1]; lycopene alone", "value": "2 to 3", "unit": "µM"},
      {"measurement": "effect of lycopene on the inhibitory effects of beta-carotene on DHT induced prostate cancer cell proliferation", "setting": "[2]; 0.3 μM lycopene combined with beta-carotene, FIG. 3", "value": "enhances the inhibitory effects"},
      {"measurement": "effect of lycopene on the inhibitory effects of phytoene and phytofluene on DHT induced prostate cancer cell proliferation", "setting": "[2]; 0.3 μM lycopene combined with phytoene and phytofluene mixture, FIG. 2", "value": "enhances the inhibitory effects"},
      {"measurement": "serum concentration plateau", "setting": "[3]", "value": "1000 to 1200", "unit": "nM"},
      {"measurement": "in-vitro activity with increasing concentration", "setting": "[4]", "value": "improved activity with the increase of concentration"}
    ]},
    {"smiles": "CC(C)=CCC/C(C)=C/CC/C(C)=C/CC/C(C)=C/C=C/C=C(\\C)CC/C=C(\\C)CC/C=C(\\C)CCC=C(C)C", "note": "[phytoene]", "values": [
      {"measurement": "resistance to H-ras-induced cell transformation", "setting": "[5]", "value": "displayed resistance"},
      {"measurement": "treating DMBA/UV-B induced tumors", "setting": "[6]", "value": "ineffective"},
      {"measurement": "UV-B induced tumors developed versus control mice", "setting": "UV-B induced tumors", "value": "fewer UV-B induced tumors than the control mice"}
    ]}
  ]
}
